Laboratory results taken from publication PMC8429728, “TNK1 is a ubiquitin-binding and 14-3-3-regulated kinase that can be targeted to block tumor growth” (Nature Communications, 2021).
Like-named read-outs stand apart in the source and are kept apart here.

Assays:
Assay in all cases: biochemical
Parameters in all cases: Reaction Biology 371-kinase panel at Km ATP, per cent enzyme activity relative to DMSO, single dose in duplicate
P38a/MAPK14 = P38a/MAPK14 (Homo sapiens, UniProt Q16539); conditions: duplicate measurements, Km ATP
In short: (§1)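 Compound screened at 300 nM in vitro across a 371-kinase panel. Enzyme activity expressed as % of DMSO controls. IC50 values came from sigmoidal variable-slope dose-response fits with the bottom fixed at 0.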

LATS2 = LATS2 (Homo sapiens, UniProt Q9NRM7); conditions: duplicate measurements, Km ATP
In short: as §1

FMS = target: T1, FMS (Homo sapiens, UniProt P07333); conditions: duplicate measurements, Km ATP
T1 construct: gene CSF1R
In short: as §1

WNK2 = WNK2 (Homo sapiens, UniProt Q9Y3S1); conditions: duplicate measurements, Km ATP
In short: as §1

RET = RET (Homo sapiens, UniProt P07949); conditions: duplicate measurements, Km ATP
In short: as §1

PKCb1 = target: T2, PKCb1 (Homo sapiens, UniProt P05771); conditions: duplicate measurements, Km ATP
T2 construct: gene PRKCB; isoform beta I
In short: as §1

JNK1 = target: T3, JNK1 (Homo sapiens, UniProt P45983); conditions: duplicate measurements, Km ATP; read-out: % Enzyme Activity (relative to DMSO controls) / TP-0005801 (0.3µM) / Data 1
T3 construct: gene MAPK8
In short: as §1

PLK3 = PLK3 (Homo sapiens, UniProt Q9H4B4); conditions: duplicate measurements, Km ATP
In short: as §1

LYN B = target: T4, LYN B (Homo sapiens, UniProt P07948); conditions: duplicate measurements, Km ATP
T4 construct: isoform B
In short: as §1

MYLK3 = MYLK3 (Homo sapiens, UniProt Q32MK0); conditions: duplicate measurements, Km ATP
In short: as §1

CAMK1b = target: T5, CAMK1b (Homo sapiens, UniProt Q6P2M8); conditions: duplicate measurements, Km ATP
T5 construct: gene PNCK
In short: as §1

TTBK2 = TTBK2 (Homo sapiens, UniProt Q6IQ55); conditions: duplicate measurements, Km ATP
In short: as §1

DYRK1/DYRK1A = DYRK1/DYRK1A (Homo sapiens, UniProt Q13627); conditions: duplicate measurements, Km ATP
In short: as §1

PKAcg = target: T6, PKAcg (Homo sapiens, UniProt P22612); conditions: duplicate measurements, Km ATP
T6 construct: gene PRKACG
In short: as §1

CDK4/cyclin D3 = CDK4/cyclin D3 (Homo sapiens, UniProt P11802); conditions: duplicate measurements, Km ATP
In short: as §1

Aurora B = target: T7, Aurora B (Homo sapiens, UniProt Q96GD4); conditions: duplicate measurements, Km ATP
T7 construct: gene AURKB
In short: as §1

PKD2/PRKD2 = PKD2/PRKD2 (Homo sapiens, UniProt Q9BZL6); conditions: duplicate measurements, Km ATP
In short: as §1

WNK1 = WNK1 (Homo sapiens, UniProt Q9H4A3); conditions: duplicate measurements, Km ATP
In short: as §1

CDK7/cyclin H = CDK7/cyclin H (Homo sapiens, UniProt P50613); conditions: duplicate measurements, Km ATP
In short: as §1

HCK = HCK (Homo sapiens, UniProt P08631); conditions: duplicate measurements, Km ATP
In short: as §1

[1] = read-out: % Enzyme Activity (relative to DMSO controls) / TP-0005801 (0.3µM) / Data 1
[2] = read-out: % Enzyme Activity (relative to DMSO controls) / TP-0005801 (0.3µM) / Data 2

Sequence of PKD2/PRKD2 (Q9BZL6 whole entry): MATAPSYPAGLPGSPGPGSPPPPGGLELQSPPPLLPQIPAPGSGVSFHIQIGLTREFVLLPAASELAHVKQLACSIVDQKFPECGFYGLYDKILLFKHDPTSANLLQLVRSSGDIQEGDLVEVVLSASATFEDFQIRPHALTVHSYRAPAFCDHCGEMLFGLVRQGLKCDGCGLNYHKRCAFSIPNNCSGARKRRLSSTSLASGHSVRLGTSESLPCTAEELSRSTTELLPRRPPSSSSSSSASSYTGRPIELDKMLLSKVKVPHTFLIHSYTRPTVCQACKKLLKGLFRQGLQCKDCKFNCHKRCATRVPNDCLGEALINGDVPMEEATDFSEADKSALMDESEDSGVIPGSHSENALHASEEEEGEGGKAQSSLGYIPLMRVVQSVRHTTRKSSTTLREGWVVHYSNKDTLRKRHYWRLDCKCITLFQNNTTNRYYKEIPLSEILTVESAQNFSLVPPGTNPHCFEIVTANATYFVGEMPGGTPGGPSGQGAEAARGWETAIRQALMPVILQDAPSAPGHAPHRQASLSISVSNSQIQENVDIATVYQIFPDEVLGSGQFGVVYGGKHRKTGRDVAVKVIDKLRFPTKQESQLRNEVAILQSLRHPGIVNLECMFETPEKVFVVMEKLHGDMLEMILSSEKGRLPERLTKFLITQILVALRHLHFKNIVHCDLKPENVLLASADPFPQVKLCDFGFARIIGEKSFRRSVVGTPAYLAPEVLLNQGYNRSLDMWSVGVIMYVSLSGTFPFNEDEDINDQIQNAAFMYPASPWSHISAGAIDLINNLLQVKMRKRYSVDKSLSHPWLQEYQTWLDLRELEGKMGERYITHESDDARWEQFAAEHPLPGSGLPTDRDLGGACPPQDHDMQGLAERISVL
T4 sequence (P07948 whole entry, canonical isoform): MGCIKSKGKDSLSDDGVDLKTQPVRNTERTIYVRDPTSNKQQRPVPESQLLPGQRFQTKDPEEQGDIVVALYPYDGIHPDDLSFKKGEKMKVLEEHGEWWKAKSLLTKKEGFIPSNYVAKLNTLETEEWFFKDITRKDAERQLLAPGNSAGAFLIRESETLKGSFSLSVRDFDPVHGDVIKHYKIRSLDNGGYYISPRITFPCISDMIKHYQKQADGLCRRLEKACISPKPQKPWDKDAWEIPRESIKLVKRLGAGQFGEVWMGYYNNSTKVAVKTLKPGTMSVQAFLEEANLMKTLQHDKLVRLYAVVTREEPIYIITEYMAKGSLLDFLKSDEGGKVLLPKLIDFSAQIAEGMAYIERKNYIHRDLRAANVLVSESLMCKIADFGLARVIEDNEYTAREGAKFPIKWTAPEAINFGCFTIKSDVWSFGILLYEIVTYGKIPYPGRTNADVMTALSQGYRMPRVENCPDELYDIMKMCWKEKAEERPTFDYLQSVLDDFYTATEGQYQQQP
T5 sequence (Q6P2M8 whole entry): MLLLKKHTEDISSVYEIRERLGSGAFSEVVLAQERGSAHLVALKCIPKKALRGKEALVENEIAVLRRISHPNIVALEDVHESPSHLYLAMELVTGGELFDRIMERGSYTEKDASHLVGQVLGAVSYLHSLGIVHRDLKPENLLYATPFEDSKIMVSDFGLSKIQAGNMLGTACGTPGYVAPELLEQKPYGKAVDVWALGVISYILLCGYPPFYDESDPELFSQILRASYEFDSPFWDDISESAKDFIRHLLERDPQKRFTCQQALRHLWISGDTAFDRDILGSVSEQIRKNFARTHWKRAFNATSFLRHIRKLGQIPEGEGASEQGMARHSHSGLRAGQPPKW
Sequence of P38a/MAPK14 (Q16539 whole entry): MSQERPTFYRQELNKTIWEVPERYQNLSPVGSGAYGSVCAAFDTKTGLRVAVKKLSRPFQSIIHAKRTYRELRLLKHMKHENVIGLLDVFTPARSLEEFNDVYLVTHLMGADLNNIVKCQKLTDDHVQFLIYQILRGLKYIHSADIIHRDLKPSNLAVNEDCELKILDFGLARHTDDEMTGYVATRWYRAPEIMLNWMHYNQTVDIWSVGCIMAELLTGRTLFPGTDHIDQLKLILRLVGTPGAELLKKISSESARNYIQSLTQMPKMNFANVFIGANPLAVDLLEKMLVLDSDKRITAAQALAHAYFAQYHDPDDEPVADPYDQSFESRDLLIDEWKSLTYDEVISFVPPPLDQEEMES
Sequence of WNK2 (Q9Y3S1 whole entry): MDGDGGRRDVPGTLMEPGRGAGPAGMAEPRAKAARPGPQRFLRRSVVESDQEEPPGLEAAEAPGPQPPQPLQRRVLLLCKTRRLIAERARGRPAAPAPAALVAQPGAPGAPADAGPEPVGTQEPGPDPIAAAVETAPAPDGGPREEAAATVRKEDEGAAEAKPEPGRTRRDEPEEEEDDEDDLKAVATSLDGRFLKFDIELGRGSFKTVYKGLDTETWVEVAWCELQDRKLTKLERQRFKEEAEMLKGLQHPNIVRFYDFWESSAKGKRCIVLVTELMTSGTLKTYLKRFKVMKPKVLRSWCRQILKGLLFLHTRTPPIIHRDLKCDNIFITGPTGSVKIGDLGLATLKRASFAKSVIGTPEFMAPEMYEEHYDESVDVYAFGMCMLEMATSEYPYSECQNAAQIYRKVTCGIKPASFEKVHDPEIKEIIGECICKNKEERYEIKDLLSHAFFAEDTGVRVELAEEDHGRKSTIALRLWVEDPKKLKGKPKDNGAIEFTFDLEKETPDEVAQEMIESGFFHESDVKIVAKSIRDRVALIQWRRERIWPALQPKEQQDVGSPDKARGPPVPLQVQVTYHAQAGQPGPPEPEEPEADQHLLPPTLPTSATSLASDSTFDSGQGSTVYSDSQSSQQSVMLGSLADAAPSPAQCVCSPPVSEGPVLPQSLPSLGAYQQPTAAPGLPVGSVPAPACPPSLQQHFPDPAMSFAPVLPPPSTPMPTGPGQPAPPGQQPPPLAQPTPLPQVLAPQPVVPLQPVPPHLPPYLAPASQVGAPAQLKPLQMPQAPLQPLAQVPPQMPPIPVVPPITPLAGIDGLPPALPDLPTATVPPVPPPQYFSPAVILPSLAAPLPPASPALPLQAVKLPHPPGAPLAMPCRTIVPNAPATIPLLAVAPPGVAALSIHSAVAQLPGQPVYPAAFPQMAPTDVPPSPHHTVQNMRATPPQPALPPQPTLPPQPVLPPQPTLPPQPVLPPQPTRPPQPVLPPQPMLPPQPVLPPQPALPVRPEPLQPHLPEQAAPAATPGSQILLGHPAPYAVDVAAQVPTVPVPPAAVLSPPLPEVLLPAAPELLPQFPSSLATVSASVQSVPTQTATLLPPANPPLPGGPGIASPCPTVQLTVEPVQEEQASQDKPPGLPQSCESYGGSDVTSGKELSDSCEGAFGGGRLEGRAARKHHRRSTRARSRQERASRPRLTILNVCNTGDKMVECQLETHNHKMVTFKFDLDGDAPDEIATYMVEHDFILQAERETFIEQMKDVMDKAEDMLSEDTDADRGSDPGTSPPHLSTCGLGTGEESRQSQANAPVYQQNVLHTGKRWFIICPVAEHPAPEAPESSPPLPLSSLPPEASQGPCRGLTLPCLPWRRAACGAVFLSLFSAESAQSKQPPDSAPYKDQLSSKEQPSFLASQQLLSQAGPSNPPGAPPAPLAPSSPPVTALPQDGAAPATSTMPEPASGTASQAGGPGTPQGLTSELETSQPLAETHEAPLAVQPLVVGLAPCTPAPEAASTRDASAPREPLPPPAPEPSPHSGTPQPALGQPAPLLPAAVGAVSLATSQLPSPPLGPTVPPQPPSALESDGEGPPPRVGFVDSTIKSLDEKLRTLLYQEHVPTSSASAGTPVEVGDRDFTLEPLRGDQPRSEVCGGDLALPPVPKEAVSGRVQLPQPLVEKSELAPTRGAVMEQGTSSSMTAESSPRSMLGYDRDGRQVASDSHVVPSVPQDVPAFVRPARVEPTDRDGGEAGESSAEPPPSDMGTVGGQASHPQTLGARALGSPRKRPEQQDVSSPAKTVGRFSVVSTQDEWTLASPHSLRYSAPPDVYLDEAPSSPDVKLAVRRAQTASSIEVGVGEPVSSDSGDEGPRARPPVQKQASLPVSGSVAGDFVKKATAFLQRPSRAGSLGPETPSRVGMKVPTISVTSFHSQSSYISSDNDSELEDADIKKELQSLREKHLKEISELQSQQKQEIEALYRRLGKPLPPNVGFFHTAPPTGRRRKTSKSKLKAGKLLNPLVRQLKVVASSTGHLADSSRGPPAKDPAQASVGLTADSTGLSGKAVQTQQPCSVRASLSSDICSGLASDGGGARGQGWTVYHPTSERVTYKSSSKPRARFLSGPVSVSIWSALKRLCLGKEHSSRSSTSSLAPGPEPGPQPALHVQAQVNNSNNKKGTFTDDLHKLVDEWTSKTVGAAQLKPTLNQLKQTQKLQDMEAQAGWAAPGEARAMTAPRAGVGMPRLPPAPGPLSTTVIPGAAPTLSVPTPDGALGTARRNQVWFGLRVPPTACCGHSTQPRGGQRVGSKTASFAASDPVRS
Sequence of CDK4/cyclin D3 (P11802 whole entry): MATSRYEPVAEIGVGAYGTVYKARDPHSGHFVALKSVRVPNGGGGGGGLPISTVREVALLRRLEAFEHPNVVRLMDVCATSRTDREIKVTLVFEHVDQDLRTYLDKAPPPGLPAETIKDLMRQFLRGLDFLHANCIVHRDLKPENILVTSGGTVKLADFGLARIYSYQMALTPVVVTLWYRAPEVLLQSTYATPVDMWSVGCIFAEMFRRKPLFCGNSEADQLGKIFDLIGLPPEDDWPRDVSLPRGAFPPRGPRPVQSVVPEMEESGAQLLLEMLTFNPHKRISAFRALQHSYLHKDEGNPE
Sequence of CDK4/cyclin D3 (P30281 whole entry partner): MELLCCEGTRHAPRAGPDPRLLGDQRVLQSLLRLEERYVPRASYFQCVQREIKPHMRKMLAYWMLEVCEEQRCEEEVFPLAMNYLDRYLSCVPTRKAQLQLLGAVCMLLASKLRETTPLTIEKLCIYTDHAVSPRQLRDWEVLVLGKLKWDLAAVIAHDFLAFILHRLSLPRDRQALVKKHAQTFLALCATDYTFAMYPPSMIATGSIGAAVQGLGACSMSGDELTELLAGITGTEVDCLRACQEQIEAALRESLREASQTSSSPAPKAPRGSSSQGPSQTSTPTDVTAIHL

## COc1cc(N2CCN(C)CC2)c(C)cc1Nc1ncc(Br)c(Nc2cccnc2N(C)C)n1 [TP-5801]
P38a/MAPK14; [1]
  remaining activity at 0.3 µM: 89%
P38a/MAPK14; [2]
  remaining activity at 0.3 µM: 88.1%
LATS2; [1]
  remaining activity at 0.3 µM: 95.8%
LATS2; [2]
  remaining activity at 0.3 µM: 92.4%
FMS; [1]
  remaining activity at 0.3 µM: 56.3%
FMS; [2]
  remaining activity at 0.3 µM: 55.6%
WNK2; [1]
  remaining activity at 0.3 µM: 96.6%
WNK2; [2]
  remaining activity at 0.3 µM: 93.9%
RET; [1]
  remaining activity at 0.3 µM: 83.2%
RET; [2]
  remaining activity at 0.3 µM: 81.2%
PKCb1; [1]
  remaining activity at 0.3 µM: 90.9%
PKCb1; [2]
  remaining activity at 0.3 µM: 90.2%
JNK1
  remaining activity at 0.3 µM: 74.7%
PLK3; [1]
  remaining activity at 0.3 µM: 109%
PLK3; [2]
  remaining activity at 0.3 µM: 102%
LYN B; [1]
  remaining activity at 0.3 µM: 99.5%
LYN B; [2]
  remaining activity at 0.3 µM: 99.4%
MYLK3; [1]
  remaining activity at 0.3 µM: 110%
MYLK3; [2]
  remaining activity at 0.3 µM: 109%
CAMK1b; [1]
  remaining activity at 0.3 µM: 119%
CAMK1b; [2]
  remaining activity at 0.3 µM: 114%
TTBK2; [1]
  remaining activity at 0.3 µM: 90.3%
TTBK2; [2]
  remaining activity at 0.3 µM: 83.1%
DYRK1/DYRK1A; [1]
  remaining activity at 0.3 µM: 86.5%
DYRK1/DYRK1A; [2]
  remaining activity at 0.3 µM: 85.9%
PKAcg; [1]
  remaining activity at 0.3 µM: 95.5%
PKAcg; [2]
  remaining activity at 0.3 µM: 92.1%
CDK4/cyclin D3; [1]
  remaining activity at 0.3 µM: 91.7%
CDK4/cyclin D3; [2]
  remaining activity at 0.3 µM: 90.8%
Aurora B; [1]
  remaining activity at 0.3 µM: 86.7%
Aurora B; [2]
  remaining activity at 0.3 µM: 83.9%
PKD2/PRKD2; [1]
  remaining activity at 0.3 µM: 66.5%
PKD2/PRKD2; [2]
  remaining activity at 0.3 µM: 64.3%
WNK1; [1]
  remaining activity at 0.3 µM: 108%
WNK1; [2]
  remaining activity at 0.3 µM: 104%
CDK7/cyclin H; [1]
  remaining activity at 0.3 µM: 103%
CDK7/cyclin H; [2]
  remaining activity at 0.3 µM: 101%
HCK; [1]
  remaining activity at 0.3 µM: 105%
HCK; [2]
  remaining activity at 0.3 µM: 102%
